pIC50: −log10 of the molar value. Where two headings read alike, the source gives them in different places.

One data set relates to hiPSC-CM microtissues. The following applies: human. An excerpt:
Fabrication of microtissue mold hydrogels and 3D microtissue culture. Scaffold-free three-dimensional microtissues (spheroid in shape, also called spheroids and/or organoids) are generated using non-adhesive agarose gels with cylindrical microwells with hemispherical bottoms to guide self-assembly. Sterilized 2% (wt/vol) agarose is pipetted into molds designed for 24-well plates with 800-μm-diameter rounded pegs (Microtissues, Providence, RI, USA). After being cooled to room temperature (˜5 minutes), the agarose gels are separated from the molds and transferred to single wells of 24-well plates. For equilibration, 1 mL medium is added to each well. Hydrogels are equilibrated at least one hour or overnight at 37° C. in a humidified incubator with 5% CO2. […] Medium is then added to each well (5 ml), and cells are cultured for 6-8 days with electrical field stimulation with a 1 Hz, 10.0 V, 4.0 ms duration bipolar pulse train for the full three-dimensional culture period (C-Pace EP, IonOptix).
Optical mapping and automated action potential duration analysis. The inventors used an Olympus MVX10 microscope to image 1.2×1.2-mm^2 regions. […] Fluorescence images were filtered using nonlinear bilateral filter (spatial filter: 5×5 window, temporal filter: 21 point window) to preserve action potential upstrokes from blurring. Typically, four microtissues were recorded simultaneously/scan at this magnification. […] The pixels with action potentials were identified from Fast Fourier transformation (FFT) of fluorescence signals. After appropriate thresholding and image segmentation, the region of each microtissue was grouped and the fluorescence signals from the pixels in the same microtissue were average and used for action potential analysis.
Validation and screening of toxicants for arrhythmogenic risk. […] Concentrations are selected to span human exposure levels or blood serum levels and quantify dose-dependent changes over a wide range (with a goal of more than 10,000× change in concentration and at least 4-6 doses). […]

The subject of the next data set is late ICa. The following applies: cited from earlier work.
A further data set concerns peak ICa. The following applies: cited from earlier work.
For data set [1] the following is noted: cited from earlier work.
The test system of another data set is hiPSC-CMLP microtissues. An excerpt:
Cardiomyocyte differentiation. The inventors differentiated cardiomyocytes (CMs) from human pluripotent stem cells; either human embryonic stem cells (hESCs, e.g. line RUES2) or human induced pluripotent stem cells (hiPSCs; Gibco human episomal iPSCs from CD34+ cord blood, ThermoFisher Scientific, NCRM-5 human episomal iPSCs from CD34+ cord blood, NIH Center for Regenerative Medicine, WTC11 GM25256 human episomal iPSCs from dermal fibroblasts, The Gladstone Institutes, UCSF) in high-density monolayer cultures. […] Human pluripotent stem cells were cultured on plates coated with truncated human vitronectin (Life Technologies) in Essential 8 medium (ThermoFisher). […] Medium was changed daily until initiation of differentiation (day 0), when cells were approximately 60-90% confluent. […] C-59 (Tocris) or 1 μM XAV939 (Tocris), all chemical Wnt inhibitors, at day 3. […] Some differentiating cells received 100 ng/ml neuregulin-1β (NRG1) daily on days 5-18 (until use in engineered tissues) and/or in engineered tissues. Some engineered tissues received 100 nM insulin-like growth factor 1 (IGF1) daily and/or 100 ng/ml NRG1 daily in engineered tissues. […] Some experiments used unpurified cells as controls and were matched for duration of culture for experiments. Cells undergoing metabolic-based lactate purification were assessed for density and beating visually, and left in the wells of the high-density monolayer cultures for lactate purification if density was high and beating was uniform across large areas of the wells. Cells not meeting these requirements for density and beating were replated at high density, 5-6×10^6 cells/cm^2 on Matrigel-coated 6 well plates in RPMI+B27 medium after 10-20 days of differentiation. All cells undergoing lactate purification were not fed for 4 days as a starvation period to encourage a switch in metabolism from glycolysis to oxidative phosphorylation in the cardiomyocytes, which are capable of this type of metabolism, while non-cardiomyocytes have a lower ability to switch the metabolic phenotype and therefore die, resulting in more pure populations of cardiomyocytes. […] Lactate purified cells were fed with RPMI+B27 until robust beating returned or appeared. Cardiac purity is assessed by flow cytometry analysis.
Fabrication of microtissue mold hydrogels and 3D microtissue culture. Scaffold-free three-dimensional microtissues (spheroid in shape, also called spheroids and/or organoids) are generated using non-adhesive agarose gels with cylindrical microwells with hemispherical bottoms to guide self-assembly. Sterilized 2% (wt/vol) agarose is pipetted into molds designed for 24-well plates with 800-μm-diameter rounded pegs (Microtissues, Providence, RI, USA). After being cooled to room temperature (˜5 minutes), the agarose gels are separated from the molds and transferred to single wells of 24-well plates. For equilibration, 1 mL medium is added to each well. Hydrogels are equilibrated at least one hour or overnight at 37° C. in a humidified incubator with 5% CO2. […]
Optical mapping and automated action potential duration analysis. […] Fluorescence images were filtered using nonlinear bilateral filter (spatial filter: 5×5 window, temporal filter: 21 point window) to preserve action potential upstrokes from blurring. Typically, four microtissues were recorded simultaneously/scan at this magnification.

Data set [2] deals with late sodium current (INa,late). The following applies: read-out: IC50, late sodium current (INa,late) block; cited from earlier work.
Data set [3] can be described thus: Clinical exposure of ranolazine (FDA documentation). It counts as in vivo, human. The following applies: dose of 1000 mg b.i.d., bracketed conversion.
The subject of another data set is INCX. The following applies: cited from earlier work.
Data set [4] deals with human cardiac fibroblasts. Description: Biochemical myofibroblast activation of human cardiac fibroblasts, αSMA immunofluorescence normalized by vimentin. The following applies: 10 ng/ml TGF-β1 for forty-eight hours; passage 4 hCFs. Type of data set: cell-based. The method, then:
The inventors next assessed the ability of human cardiac fibroblasts to be further activated via biochemical stimulation by treating passage 4 human cardiac fibroblasts with 10 ng/ml TGF-β1 for forty-eight hours. Cells were fixed and fluorescently labeled for αSMA and vimentin.

The subject of another data set is rodents. The following applies: greater sensitivity in female rats than male rats; increased with isoproterenol stimulation; cited from earlier work.

As to `Cn1c(=O)c2c(ncn2C)n(C)c1=O` [caffeine], the action potential duration in the data set with hiPSC-CM microtissues (5 mM) turned out to be 90.5 ± 22.3 ms.
Broadly, the pIC50 is −log10 of the IC50, conventionally taken in molar units. The Cmax is the peak of the concentration-time curve. Consider `COc1ccccc1OCC(O)CN1CCN(CC(=O)Nc2c(C)cccc2C)CC1` (stereo not drawn) [ranolazine], for which the pIC50 in the data set on late ICa is 4.30; in the data set on peak ICa it was 3.53; in [2], 5.23; in the data set with INCX, 4.04. Besides, the “mean steady-state Cmax [in blood serum]” value in data set [1] (dose of 1000 mg b.i.d.) was 2569 ng/mL. For the same compound, the therapeutic concentration in [1] (human, in vivo) was 1 to 10 µM. In the data set on hiPSC-CMLP microtissues, the “APD changes over dose-response” value is recorded as “moderate APD changes within a safety criteria of QT prolongation”. Moreover, the Cmax is 6 µM in data set [3] (read-out: mean steady-state Cmax [in blood serum]) and 0.98 to 14.2 µM in [3] (human, serum, read-out: 95% of Cmax values).
“TGF-β1: growth factor used for biochemical activation of human cardiac fibroblasts to a myofibroblast-like state”: the “increase in normalized αSMA fluorescence compared to control” value in [4] worked out at 1.2 fold.
As to `CC(C)NCC(O)c1ccc(O)c(O)c1` (stereo not drawn) [isoproterenol], in the data set on hiPSC-CM microtissues (100 nM), the action potential duration worked out at 120.1±10.5 and the “average reduction of APD80” value worked out at 45 ms.
As to `CC(C)(c1ccc(O)cc1)c1ccc(O)cc1` [BPA, bisphenol-A], in the data set on hiPSC-CMLP microtissues, the “APDtri (APD80-APD30)” value is listed as “shorter”; the “concentration that shifts action potential duration measurements” value is recorded as “one”; the “excitability, pacing at 0.5 Hz” value is given as “fails to evoke action potentials”. Further, the “APD30 and APD50 versus APD80” value in the data set on hiPSC-CMLP microtissues (human, 20 min) was “APD30 and APD50 were shortened more than APD80”. Also, the concentration promoting arrhythmias with rodents is 0.001 µM.

Values taken from patent US12529694B2, “Human in vitro cardiotoxicity model” (Brown University, priority 2019, dated 2026).
